According to US7511119B2, “PRAME peptide analogues” (MannKind Corporation, priority 2005, dated 2009):
Each block holds one molecule with its values, some of them ahead of it. Square brackets hold non-standard residues; d marks the D form. Ends that are not written are not given here. Nle = CCCC[C@H](N)C(=O)O; Nva = CCC[C@H](N)C(=O)O

Key:
624.38 cells = assay: Ex vivo cytotoxicity against human tumor cells after boost with tyrosinase analogs; assay type: in vivo; settings: pSEM prime, peptide boost; FIG. 41
Description: HHD transgenic mice (n=4/group) were immunized (according to the general protocol in FIG. 40) with plasmid (pSEM) expressing the Tyrosinase369-377 epitope by direct inoculation into the inguinal lymph nodes of 25 μg of plasmid in 25 μl of PBS per lymph node at day 0, 3, 14 and 17. […] One week after the boost, splenocytes were stimulated ex vivo with the native Tyrosinase369-377 peptide and assayed against ^51Cr-labeled human tumor cells (624.38 cells) at various E:T ratios. […] Together with the preceding example, this observation illustrates the usefulness of complementing more stringent assays (in vivo cytotoxicity and tetramer staining) with more sensitive assays (ex vivo cytotoxicity after in vitro stimulation) to outline potentially useful analogs.

LnCap cells = assay: Ex vivo cytotoxicity against PSMA+ A2+ human tumor cells; assay type: in vivo; settings: splenocytes restimulated ex vivo with native PSMA288-297
Description: HHD transgenic mice (n=4) were immunized with PSMA288-297 peptide (25 μg in 25 μl of PBS, plus 12.5 μg of pI:C to each lymph node) at day 0, 3, 14 and 17. One week after the boost, splenocytes were stimulated ex vivo with the native PSMA288-297 peptide and tested against ^51Cr-labeled human tumor cells (PSMA^+ A2^+ LnCap cells, or as negative control, LnCap cells coated with MHC class I-blocking antibody) at various E:T ratios.
HHD transgenic mice (n=4) were immunized with plasmid expressing the PSMA288-297 epitope by direct inoculation into the inguinal lymph nodes with 25 μg in 25 μl of PBS to each lymph node at day 0, 3, 14 and 17. This was followed by two peptide boosts (same amount) at day 28 and 31, with the analog I297V. One week after the boost, splenocytes were stimulated ex vivo with the native PSMA288-297 peptide and tested overnight against ^51Cr-labeled human tumor cells (Lncap, A2^+ PSMA^+; or 624.38 A2^+ PSMA^− or control 624.28 cells A2^− PSMA^−) at various E:T ratios.

PSMA288-297 peptide = assay: Plasmid prime, peptide boost, IFN-gamma ELISPOT (PSMA288-297); assay type: in vivo, HHD transgenic mice; settings: versus natural peptide boost, FIG. 23
Description: Two groups of HHD transgenic mice (n=8) were immunized with plasmid expressing PSMA288-297 by direct inoculation into the inguinal lymph nodes with 25 μg in […] of PBS to each lymph node at day 0, 3, 14 and 17. This was followed by two peptide boosts (25 μg) at day 28 and 31 with either the natural peptide or the I297V analog.
Mice were sacrificed at 10 days after the last boost, and splenocytes prepared and assessed for IFN-γ production by ELISPOT analysis. […] At 48 hours after incubation, the assay was developed and the frequency of cytokine-producing T cells that recognized the PSMA288-297 peptide was automatically counted. The data is represented in FIG. 23 as frequency of specific T cells normalized to 0.5 million responder cells (mean of triplicates+SD).

[1] = tested on: native PSMA288-297 peptide; assay: Cross-reactive immunogenicity of PSMA analogs, IFN-gamma ELISPOT; assay type: in vivo, HHD transgenic mice; settings: peptide plus pI:C intranodal; FIG. 22
Description: Groups of HHD transgenic mice (n=8) were immunized with peptide (natural epitope PSMA288-297, or analogs bearing substitutions at primary or secondary anchor residues) by direct inoculation into the inguinal lymph nodes, with 25 μg in 25 μl of PBS+12.5 μg of pI:C to each lymph node at day 0, 3, 14 and 17.
Mice were sacrificed at 10 days after the last boost, and splenocytes prepared and assessed for IFN-γ production by ELISPOT analysis. […] At 48 hours after incubation, the assay was developed and the frequency of cytokine-producing T cells that recognized native PSMA288-297 peptide was automatically counted. The data is represented in FIG. 22 as the number of spot forming colonies/well (mean of triplicates±SD). […] To the extent that the poor immunogenicity of the native epitope reflects tolerance, the improved activity of these analogs represents tolerance breaking.

[2] = tested on: T cell lines against natural epitope SSX-241-49; assay: Cross-reactivity and functional avidity: IFN-gamma production by T cell lines raised against natural SSX-2 41-49; assay type: cell-based, HHD transgenic mice; settings: T cells raised to native peptide tested on analogs; footnote * and unit not given;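 also: analogs presented ex vivo by competent APCs to T cells specific for the non-mutated epitope, scored by lowest activating concentration, peak cytokine effect and concentration at that peak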
[3] = tested on: target cells coated with natural peptide; assay: In vivo cytotoxicity against splenocytes coated with natural SSX-2 41-49 peptide (CFSE); set-up: species or system HHD mice; settings: spleen and blood; targets coated with 20 μg/ml and 1 μg/ml natural peptide
Description: Eight groups of mice (n=4) were immunized with plasmid expressing SSX-241-49 natural epitope, by direct inoculation into the inguinal lymph nodes with 25 μg in 25 μl of PBS/each lymph node at day 0, 3, 14 and 17. This was followed by two additional peptide boosts (similar amount) at day 28 and 31, using a negative control peptide (Melan A 26-35 “EAA”), natural peptide or analogs as shown in FIG. 9.
To evaluate the in vivo response against natural peptide, splenocytes were isolated from littermate control HHD mice and incubated with 20 μg/mL or 1 μg/ml of natural peptide for 2 hours. These cells were then stained with CFSE^hi fluorescence (4.0 μM or […] for 15 minutes) and intravenously co-injected into immunized mice with an equal number of control splenocytes stained with CFSE^lo fluorescence (0.4 μM). Eighteen hours later the specific elimination of target cells was measured by removing spleen and PBMC from challenged animals and measuring CFSE fluorescence by flow cytometry. The relative depletion of the populations corresponding to peptide loaded splenocytes was calculated relative to the control (unloaded) population and expressed as % specific lysis. FIG. 10 (spleen) and 11 (blood) show the in vivo cytotoxicity elicited by the regimens described in FIG. 7.

T2 cells = assay: Ex vivo cytotoxicity against 51Cr-labeled T2 target cells after plasmid prime and peptide boost; assay type: in vivo, mice; settings: plasmid prime, peptide boost; splenocytes restimulated ex vivo; FIG. 8
Description: Three groups of mice (n=4) were immunized with a plasmid expressing SSX-241-49 natural epitope by direct inoculation into the inguinal lymph nodes with 25 μg in 25 μl of PBS/each lymph node at day 0, 3, 14 and 17. This was followed by two additional peptide boosts (similar amount) at day 28 and 31. One week after the boost, splenocytes were stimulated ex vivo with SSX-241-49 natural peptide and tested against ^51Cr-labeled target cells (T2 cells) at various E:T ratios (FIG. 8). […] This correlated with the binding and stability parameters determined by ex vivo experimentation.

624.38 melanoma cells = assay: Ex vivo cytotoxicity against human tumor cells after boost with SSX-2 analogs; assay type: in vivo; settings: plasmid prime, peptide boost; FIG. 12
Description: Eight groups of mice (n=4) were immunized with plasmid expressing SSX-241-49 natural epitope by direct inoculation into the inguinal lymph nodes with 25 ug in 25 ul of PBS/each lymph node at day 0, 3, 14 and 17. This was followed by two additional peptide boosts (similar amount) at day 28 and 31, using a negative control peptide (Melan A 26-35 “EAA”), natural peptide or analogs as shown in FIG. 9.

[4] = tested on: native peptide loaded splenocytes; assay: In vivo cytotoxicity against native PRAME peptide-loaded splenocytes (CFSE); set-up: species or system HHD transgenic mice; settings: pCTLR2 prime, peptide boost; FIGS. 30-31
[5] = target: T1, A0201 restricted MHC Class 1 molecules (Homo sapiens, UniProt P04439, D140Y/D185E/D98H/E176V/E277Q/G131W/G231S/I119V/I121R/I166T/I218V/N151K/N90K/P208A/P217A/Q86G/Q94H/R138H/R169H); assay: iTopia binding assay (% binding); settings: compared with the native peptide
Description: (§1) Avidin-coated microtiter plates containing class I monomer loaded with a so-called placeholder peptide were used to evaluate peptide binding, affinity and off-rate. […] Assay buffers, anti-MHC-FITC mAb and beta2-microglobulin and control peptides were also supplied with the kits.
This assay measures the ability of individual peptides to bind HLA molecules under standardized optimal binding conditions. Monomer-coated plates were first stripped, releasing the placeholder peptide and leaving only the MHC heavy chain bound to the plate. Test peptides were then introduced under optimal folding conditions, along with the anti-MHC-FITC mAb. […] The anti-MHC-FITC mAb binds preferentially to a refolded MHC complex. Therefore, the fluorescence intensity resulting from each peptide was related to the peptide's ability to form complex with MHC molecule. Each peptide's binding was evaluated relative to the positive control peptide provided in the kit, and the results were expressed “% binding”.

[6] = tested on: target cells coated with wild-type peptide; assay: In vivo cytotoxicity against wild-type NY-ESO-1 peptide-coated target cells; set-up: species or system HHD mice; settings: plasmid entrain, peptide amplify; FIGS. 15-16
Description: These cells were then stained with CFSE^hi and CFSE^med fluorescence (4.0 μM or 1 μM, respectively, for 15 minutes) and intravenously co-injected into immunized mice with an equal number of control splenocytes stained with CFSE^lo fluorescence (0.4 μM). Eighteen hours later the specific elimination of target cells was measured by removing the spleens and PBMC from challenged animals and measuring CFSE fluorescence by flow cytometry. The relative depletion of the populations corresponding to peptide loaded splenocytes was calculated relative to the control (unloaded) population and expressed as % specific lysis.

splenocytes = assay: Ex vivo IFN-gamma production after re-stimulation with wild-type NY-ESO-1157-165 (ELISA); assay type: in vivo, mice; settings: 10 μM wild-type peptide, 3 and 6 days; FIG. 17
Description: Supernatants were harvested and the concentration of IFN-γ measured by ELISA.

[7] = target: T1, A0201 restricted MHC Class 1 molecules; assay: iTopia off-rate assay (T1/2); assay type: binding; settings: compared with the respective native peptide
Description: as §1
The plates were then incubated on the allele-specific monomer plates at 37° C. The plates were measured at multiple time points (0, 0.5, 1, 1.5, 2, 4, 6 and 8 hrs) for relative fluorescence intensity. The time required for 50% of the peptide to dissociate from the MHC monomer is defined as the T1/2 value (hrs).
The binding and offrate (T1/2) was determined for six native epitopes and their analogs which were designed to enhance the immune response.

[8] = target: T2, HLA-A*0201 class I monomer of the iTopia Epitope Discovery System; assay: iTopia affinity and off-rate assays
T2 construct: also called A0201 restricted MHC Class 1 molecules; MHC monomer

[9] = target: T2, HLA-A*0201 class I monomer of the …; assay: iTopia affinity assay
[10] = target: T2, HLA-A*0201 class I monomer of the …; assay: iTopia off-rate assay

Molecule: YMDGTMSQV [Tyrosinase 369-377, reference compound]
cytotoxicity against 624.38 cells (624.38 cells): robust cytotoxicity

Molecule: PSMA 288-297(I297V): PSMA288-297 analog with I297V substitution
cytotoxicity against LnCap human tumor cells (LnCap cells): effective in mediating cytotoxicity against LNCAP
frequency of native epitope-specific T cells (ELISPOT) (PSMA288-297 peptide): considerably higher
priming of immune response against native PSMA288-297 (IFN-γ ELISPOT), in words [1]: increased priming

Molecule: CC[C@H](C)[C@H](NC(=O)[C@H](CCCCN)NC(=O)[C@H](CCC(=O)O)NC(=O)[C@H](CO)NC(=O)[C@@H](NC(=O)[C@@H](N)CCCCN)C(C)C)C(=O)N[C@@H](Cc1ccccc1)C(=O)N[C@@H](Cc1ccc(O)cc1)C(=O)N[C@H](C(=O)O)C(C)C [SSX2 41-49 (A42V)]
Cross-reactivity and fct avidity (native to analogs)* [2]: 0.03
in vivo cytotoxicity (% specific lysis), in words [3]: increased activity
response against target cells expressing the natural peptide (T2 cells): higher response
cytotoxicity against human tumor cells expressing natural SSX-2 41-49 epitope (624.38 melanoma cells): increased cytotoxicity

Molecule: YVDGTMSQNva (YVDGTMSQ[Nva]) [M370V V377Nva]
cytotoxicity against 624.38 cells (624.38 cells): robust cytotoxicity

Now from value to molecule, other results behind:

percent binding, in words [5]: exceeded that range on the high side
Molecule: S425F: PRAME425-433 analog with Phe for the Ser at P1 (FLLQHLIGL) [Peptide S425F]
in vivo cytotoxicity against native epitope, in words [4]: capable of expanding the immunity against the native epitope

stability of binding (half-time of dissociation), in words [7]: Significant increase in the stability
Molecule: SNvaLMWITQV (S[Nva]LMWITQV) [Nyeso-1 157-165 (L158Nva, C165V))]
in vivo cytotoxicity (% specific lysis), in words [6]: substantial, constant cytotoxicity
IFN-gamma production upon ex vivo re-stimulation with wild-type peptide (splenocytes): large levels of IFN-gamma more rapidly

binding result [8]: binds
Molecule: F[Nva]LQHLIG[Nle] [PRAME425-433 analog with Phe at P1, Nva at P2 and Nle at PΩ]

fold difference of ED50 against the native peptide [9]: ≤ 3 fold
t1/2 [10]: 17.2 h
Molecule: SLLQHLIG[Nva] [PRAME425-433 analog with Nva at PΩ]
